Among the data in patent US9732094B2, “Arylquinazolines” (Merck Patent GmbH, priority 2013, dated 2017) are IC50 and Ki values, retold here.

The IC50 is the point on the concentration scale where inhibition reaches its midpoint. The term Ki denotes a dissociation constant, usually derived from enzyme kinetics or from competition with a known ligand.

One data set addresses DNA-PK (Homo sapiens (Human), UniProt P78527). In words: DNA-PK assay (biochemical), flashplate 33P-ATP kinase assay. Put shortly:
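Radiometric kinase reaction in streptavidin-coated flashplates, stopped with 200 mM EDTA, then 30 min room-temperature incubation and saline washes.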

The target in the next data set is Kv11.1 (hERG) (Homo sapiens (Human), UniProt Q12809). The data set can be described thus: Kv11.1 (hERG) ion channel activity (patch clamp assay), HEK293 cells transfected with hERG gene. (In general: Block of hERG is tested as a sign of cardiac risk.)
For data set [1], the target named is DNA-PK phosphorylation at serine 2056 (Homo sapiens (Human), UniProt P78527). In words: DNA-PK phosphorylation at serine 2056 (cellular), bleomycin-treated HCT116 cells, ELISA. The class given is cell-based. The settings on record: read-out: IC50 pDNA-PK. The essentials:
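HCT116 cells were treated with 10 μM bleomycin plus test compounds for six hours at 37 °C. Phospho-Ser2056 DNA-PK measured by chemiluminescent ELISA, normalised to total DNA-PKcs signal; DMSO control as blank.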
(An ELISA detects its analyte on a solid surface through an enzyme-linked reagent.)

The mark [2] stands for this setting: read-out: Ki [Kv1.11 hERG], patch clamp, HEK293 transfected with hERG gene.
Setting [3] is: cellular, HCT116 cells, 10 μM bleomycin, six hours.
Setting [4] is: read-out: Ki [Kv1.11 hERG], hERG patch clamp assay (cells without asterisk).
Where [5] appears, read: cellular DNA-PK phosphorylation at serine 2056, HCT116.
[6] abbreviates: Ki [Kv1.11 hERG], hERG patch clamp assay (cells without asterisk).
The mark [7] stands for this setting: Ki [Kv1.11 hERG], patch clamp, HEK293 transfected with hERG gene.

Like-named read-outs stand apart in the source and are kept apart here.

Kv11.1 (hERG), sequence (Q12809 whole entry): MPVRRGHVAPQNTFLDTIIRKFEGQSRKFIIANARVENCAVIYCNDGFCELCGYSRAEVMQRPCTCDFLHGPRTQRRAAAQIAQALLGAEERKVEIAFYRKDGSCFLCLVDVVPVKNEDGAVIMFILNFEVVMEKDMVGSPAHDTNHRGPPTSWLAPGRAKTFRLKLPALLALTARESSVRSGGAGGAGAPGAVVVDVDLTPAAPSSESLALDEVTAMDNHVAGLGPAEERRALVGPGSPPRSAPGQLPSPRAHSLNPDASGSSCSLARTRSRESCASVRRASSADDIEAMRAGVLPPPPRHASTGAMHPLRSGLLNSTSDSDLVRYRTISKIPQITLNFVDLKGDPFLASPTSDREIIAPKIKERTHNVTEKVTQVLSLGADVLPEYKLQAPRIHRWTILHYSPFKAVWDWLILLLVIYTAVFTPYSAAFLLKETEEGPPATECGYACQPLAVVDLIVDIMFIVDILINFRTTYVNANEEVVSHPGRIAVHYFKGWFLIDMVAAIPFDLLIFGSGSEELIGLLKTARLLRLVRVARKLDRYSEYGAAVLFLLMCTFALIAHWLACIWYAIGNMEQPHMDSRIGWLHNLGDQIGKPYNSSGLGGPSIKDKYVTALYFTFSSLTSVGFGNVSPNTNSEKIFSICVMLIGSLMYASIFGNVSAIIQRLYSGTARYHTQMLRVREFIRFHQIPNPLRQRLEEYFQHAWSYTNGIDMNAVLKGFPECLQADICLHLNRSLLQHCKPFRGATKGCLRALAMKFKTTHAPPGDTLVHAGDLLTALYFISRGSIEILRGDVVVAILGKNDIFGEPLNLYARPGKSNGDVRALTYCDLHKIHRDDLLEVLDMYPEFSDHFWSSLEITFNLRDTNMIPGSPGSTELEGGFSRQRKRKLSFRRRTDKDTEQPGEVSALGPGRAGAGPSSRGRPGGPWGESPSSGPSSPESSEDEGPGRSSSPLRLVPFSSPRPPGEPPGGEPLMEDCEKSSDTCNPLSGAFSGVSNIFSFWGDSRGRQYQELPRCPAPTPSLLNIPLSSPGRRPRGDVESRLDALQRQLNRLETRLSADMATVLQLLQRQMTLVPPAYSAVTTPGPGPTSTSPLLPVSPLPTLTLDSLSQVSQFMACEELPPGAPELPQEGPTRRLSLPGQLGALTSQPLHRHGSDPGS

In the case of `OC(c1ccc2nccn2n1)c1cc(-c2ncnc3cc(N4CCOCC4)ccc23)c(F)cc1F` (single isomer, unassigned) [Example 20, [2,4-Difluoro-5-(7-morpholin-4-yl-quinazolin-4-yl)phenyl]-imidazo[1,2-b]pyridazin-6-ylmethanol], the IC50 at DNA-PK (enzymatic, 5 μM ATP) is 0.007 to 0.03 µM; in data set [1] (setting [3]), 5 to 10 µM. For the same compound, the Ki on Kv11.1 (hERG) (setting [2]) is above 25 µM.

Turning to `OC(c1ccc2ncnn2c1)c1cc(-c2ncnc3cc(N4CCOCC4)ccc23)c(F)cc1F` (stereo not drawn) [Example 222, [2,4-Difluro-5-(7-morpholin-4-yl-quinazolin-4-yl)-phenyl]-[l,2,4]-triazolo[1,5-a]pyridin-6-ylmethanol], the IC50 on DNA-PK (Table 7) lay in the range of 0.003 to 0.007 µM; in data set [1] (Table 7, HCT116 cells) it was 0.5 to 5 µM. At Kv11.1 (hERG) (read-out: Ki [Kv1.11 hERG], Table 7), the Ki is above 25 µM.

On to `OC(c1ccc(F)c(-c2ncnc3cc(N4CCOCC4)ccc23)c1)c1nccc2ccoc12` (stereo not drawn) [Example 328, [4-Fluoro-3-(7-morpholin-4-yl-quinazolin-4-yl)-phenyl)furo[2,3-c]-pyridin-7-ylmethanol], for which the IC50 on DNA-PK (biochemical DNA-PK assay) was below 0.003 µM; in data set [1] (setting [5]) it was below 0.5 µM. In addition, the Ki at Kv11.1 (hERG) (setting [4]) is below 10 µM.

For `NC(=O)COc1ccc(C(O)c2cc(-c3ncnc4cc(N5CCOCC5)ccc34)c(F)cc2Cl)nn1` (stereo not drawn) [Example 111, 2-(6-{[2-Chloro-4-fluoro-5-(7-morpholin-4-yl-quinazolin-4-yl)-phenyl]hydroxy-methyl}pyridazin-3-yloxy)acetamide], the IC50 on DNA-PK (enzymatic, 5 μM ATP) was 0.003 to 0.007 µM; in data set [1] (setting [3]), 5 to 10 µM. For the same compound, the Ki at Kv11.1 (hERG) (setting [2]) is above 25 µM.

Turning to `OC(c1ccc(F)c(-c2ncnc3cc(N4CCOCC4)sc23)c1)c1nccnc1Cl` (single isomer, unassigned) [Example 23, (3-Chloro-pyrazin-2-yl)-[4-fluoro-3-(6-morpholin-4-yl-thieno-[3,2-d}pyrimidin-4-yl)-phenyl]methanol], the IC50 at DNA-PK (enzymatic, 5 μM ATP) is 0.007 to 0.03 µM; in data set [1] (setting [3]), 5 to 10 µM. On Kv11.1 (hERG) (setting [2]), the Ki was above 25 µM.

Turning to `COc1nccnc1[C@H](O)c1cc(-c2ncnc3cc(N4CCOCC4)ccc23)c(F)cc1Cl` [Example 455, (R)-[2-Chloro-4-fluoro-5-(7-morpholin-4-yl-quinazolin-4-yl)-phenyl]-(3-methoxy-pyrazin-2-yl)-methanol], the concentration for half-maximal inhibition (IC50) is below 0.003 µM on DNA-PK (biochemical DNA-PK assay) and below 0.5 µM in data set [1] (setting [5]). For the same compound, at Kv11.1 (hERG) (setting [6]), the Ki is 15 to 25 µM.

`OC(c1ccc(F)c(-c2ncnc3cc(C4=CCOCC4)ccc23)c1)c1nccs1` (stereo not drawn) [Example 139, {3-[7-(3,6-Dihydro-2H-pyran-4-yl)-quinazolin-4-yl]-4-fluoro-phenyl}-thiazol-2-ylmethanol]: the IC50 on DNA-PK (Table 5) is 0.007 to 0.03 µM; in data set [1] (Table 5, HCT116 cells), 10 to 30 µM. The Ki at Kv11.1 (hERG) (read-out: Ki [Kv1.11 hERG], Table 5) is above 25 µM.

As for `Cc1nc([C@H](O)c2cnc(F)c(-c3ncnc4cc(N5CCOCC5)ncc34)c2)sc1C` [Example 204, (R)-(4,5-Dimethyl-thiazol-2-yl)-[6-fluoro-5-(7-morpholin-4-yl-pyrido[4,3-d}-pyrimidin-4-yl)-pyridin-3-yl]-methanol], the IC50 is above 0.03 µM against DNA-PK (Table 5) and 10 to 30 µM in data set [1] (Table 5, HCT116 cells). The Ki on Kv11.1 (hERG) (Ki [Kv1.11 hERG], Table 5) lay in the range of 10 to 15 µM.

Take `Cc1nccnc1C(O)c1cc(-c2ncnc3cc(N4CCOCC4)ccc23)c(F)cc1Cl` (stereo not drawn) [Example 457, [2-Chloro-4-fluoro-5-(7-morpholin-4-yl-quinazolin-4-yl)-phenyl]-(3-methyl-pyrazin-2-yl)-methanol]: the results for the IC50 (against DNA-PK (biochemical DNA-PK assay); in data set [1] (setting [5])) were 0.003 to 0.007 µM and below 0.5 µM, respectively. In addition, at Kv11.1 (hERG) (setting [4]), the Ki is above 25 µM.

In the case of `OC(c1ccc2nccn2n1)c1cc(-c2ncnc3cc(N4CCOCC4)ccc23)c(F)cc1Cl` (stereo not drawn) [Example 57, [2-Chloro-4-fluoro-5-(7-morpholin-4-yl-quinazolin-4-yl)phenyl]-imidazo[1,2-b]pyridazin-6-ylmethanol], the IC50 on DNA-PK (enzymatic, 5 μM ATP) was below 0.003 µM; in data set [1] (setting [3]), below 0.5 µM. Moreover, the Ki on Kv11.1 (hERG) (setting [2]) fell in the range of 10 to 15 µM.

For `COc1cnc(C(O)c2ccc(F)c(-c3ncnc4cc(N5CCOCC5)ccc34)c2)cn1` (stereo not drawn) [Example 60, [4-Fluoro-3-(7-morpholin-4-yl-quinazolin-4-yl)phenyl]-(5-methoxypyrazin-2-yl)methanol], the IC50 at DNA-PK (enzymatic, 5 μM ATP) lay in the range of 0.007 to 0.03 µM; in data set [1] (setting [3]), 0.5 to 5 µM. For the same compound, the Ki on Kv11.1 (hERG) (setting [7]) is 15 to 25 µM.

For the compound `COc1ccc(C(OC)c2ccc(F)c(-c3ncnc4cc(N5CCOCC5)ccc34)c2)nn1` (stereo not drawn) [Example 73, 4-{2-Fluoro-5-[methoxy-(6-methoxy-pyridazin-3-yl)methyl]phenyl}-7-morpholin-4-yl-quinazoline], the IC50 lay within 0.003 to 0.007 µM against DNA-PK (enzymatic, 5 μM ATP) and 0.5 to 5 µM in data set [1] (setting [3]). Further, at Kv11.1 (hERG) (setting [2]), the Ki was above 25 µM.

For `Cc1nccnc1C(O)c1cc(-c2ncnc3cc(N4CCOCC4)ccc23)ccc1Cl` (stereo not drawn) [Example 428, [2-Chloro-5-(7-morpholin-4-yl-quinazolin-4-yl)-phenyl]-(3-methyl-pyrazin-2-yl)-methanol], the values for the half-inhibitory concentration (IC50) (on DNA-PK (biochemical DNA-PK assay); in data set [1] (setting [5])) were 0.007 to 0.03 µM and below 0.5 µM, respectively. Moreover, the Ki at Kv11.1 (hERG) (setting [6]) is 10 to 15 µM.

Regarding `COc1cnc(C(O)c2ccc(OC)c(-c3ncnc4cc(N5CCOCC5)ccc34)c2)cn1` (stereo not drawn) [Example 61, [4-methoxy-3-(7-morpholin-4-yl-quinazolin-4-yl)phenyl]-(5-methoxypyrazin-2-yl)methanol], the IC50 against DNA-PK (enzymatic, 5 μM ATP) is above 0.03 µM; in data set [1] (setting [3]) it was 10 to 30 µM. Also, the Ki on Kv11.1 (hERG) (setting [2]) was above 25 µM.

With `OC(c1cc(-c2ncnc3cc(N4CCOCC4)ccc23)ccc1Cl)c1nccn2ccnc12` (stereo not drawn) [Example 369, [2-Chloro-5-(7-morpholin-4-yl-quinazolin-4-yl)-phenyl]imidazo-[1,2-a]pyrazin-8-yl-methanol], the results for the IC50 (at DNA-PK (biochemical DNA-PK assay); in data set [1] (setting [5])) were 0.007 to 0.03 µM and 5 to 10 µM, respectively. Moreover, on Kv11.1 (hERG) (setting [6]), the Ki lay within 15 to 25 µM.

For the compound `Cc1nccnc1C(C(N)=O)c1cc(-c2ncnc3cc(N4CCOCC4)ccc23)ccc1Cl` (stereo not drawn) [Example 303, 2-[2-Chloro-5-(7-morpholin-4-yl-quinazolin-4-yl)-phenyl]-2-(3-methyl-pyrazin-2-yl)-acetamide], the values for the IC50 (on DNA-PK (biochemical DNA-PK assay); in data set [1] (setting [5])) were 0.007 to 0.03 µM and 5 to 10 µM, respectively. The Ki on Kv11.1 (hERG) (setting [6]) was 15 to 25 µM.

`[2H]C1([2H])OC([2H])([2H])C([2H])([2H])N(c2ccc3c(-c4cc(C(O)c5nccnc5OC)c(Cl)cc4F)ncnc3c2)C1([2H])[2H]` (stereo not drawn) [Example 242, [2-Chloro-4-fluoro-5-[7-(2,2,3,3,5,5,6,6-octadeuteriomorpholin-4-yl)quinazolin-4-yl]phenyl]-(3-methoxypyrazin-2-yl)methanol]: the values for the IC50 (against DNA-PK (biochemical DNA-PK assay); in data set [1] (setting [5])) were below 0.003 µM and below 0.5 µM, respectively. Further, the Ki on Kv11.1 (hERG) (setting [6]) lay within 15 to 25 µM.

For the compound `COc1cnc(C(O)c2ccc(F)c(-c3ncnc4cc(N5CCOCC5)ccc34)c2)nc1` (stereo not drawn) [Example 69, [4-Fluoro-3-(7-morpholin-4-yl-quinazolin-4-yl)phenyl]-(5-methoxypyrimidin-2-yl)methanol], the IC50 at DNA-PK (enzymatic, 5 μM ATP) lay within 0.003 to 0.007 µM; in data set [1] (setting [3]), 5 to 10 µM. Moreover, at Kv11.1 (hERG) (setting [2]), the inhibition constant Ki is above 25 µM.

As for `OC(c1ccc(F)c(-c2ncnc3cc(N4CCOCC4)ccc23)c1)c1nccnc1Cl` (stereo not drawn) [Example 54, (3-Chloro-pyrazin-2-yl)-[4-fluoro-3-(7-morpholin-4-yl-quinazolin-4-yl)phenyl]-methanol], the IC50 against DNA-PK (enzymatic, 5 μM ATP) is below 0.003 µM; in data set [1] (setting [3]) it was below 0.5 µM. The same compound showed an inhibition constant Ki at Kv11.1 (hERG) (setting [7]) of 15 to 25 µM.

As for `Cn1c(C(O)c2cc(-c3ncnc4cc(N5CCOCC5)ccc34)ccc2F)cccc1=O` (stereo not drawn) [Example 365, 6-{[2-Fluoro-5-(7-morpholin-4-yl-quinazolin-4-yl)-phenyl]hydroxy-methyl}-1-methyl-1H-pyridin-2-one], the IC50 is 0.003 to 0.007 µM against DNA-PK (biochemical DNA-PK assay) and 0.5 to 5 µM in data set [1] (setting [5]). Further, the Ki at Kv11.1 (hERG) (setting [4]) was above 25 µM.

For `Cn1cnc2c(C(O)c3cc(-c4ncnc5cc(N6CCOCC6)ccc45)c(F)cc3F)ncnc21` (stereo not drawn) [Example 347, [2,4-Difluoro-5-(7-morpholin-4-yl-quinazolin-4-yl)-phenyl]-(9-methyl-9H-purin-6-yl)-methanol], the IC50 against DNA-PK (biochemical DNA-PK assay) lay within 0.003 to 0.007 µM; in data set [1] (setting [5]) it was 0.5 to 5 µM. Moreover, the Ki on Kv11.1 (hERG) (setting [4]) was above 25 µM.

For the compound `NC(=O)C(c1ccc(F)c(-c2ncnc3cc(N4CCOCC4)ccc23)c1)c1c(F)cncc1F` (stereo not drawn) [Example 321, 2-(3,5-Difluoro-pyridin-4-yl)-2-[4-fluoro-3-(7-morpholin-4-yl-quinazolin-4-yl)-phenyl]acetamide], the IC50 fell in the range of 0.007 to 0.03 µM against DNA-PK (biochemical DNA-PK assay) and 0.5 to 5 µM in data set [1] (setting [5]). In addition, on Kv11.1 (hERG) (setting [6]), the Ki fell in the range of 15 to 25 µM.

`OCCOc1nccnc1C(O)c1ccc(F)c(-c2ncnc3cc(N4CCOCC4)ccc23)c1` (stereo not drawn) [Example 105, 2-(3-{[4-fluoro-3-(7-morpholin-4-yl-quinazolin-4-yl)-phenyl]hydroxy-methyl}pyrazin-2-yl-oxy)ethanol]: the IC50 at DNA-PK (enzymatic, 5 μM ATP) was in the range of 0.007 to 0.03 µM; in data set [1] (setting [3]), 10 to 30 µM. Further, on Kv11.1 (hERG) (setting [2]), the Ki is above 25 µM.

For the compound `OC(c1ccc(F)c(-c2ncnc3cc(N4CCOCC4)ccc23)c1)c1c(F)cncc1Cl` (stereo not drawn) [Example 77, (3-Chloro-5-fluoro-pyridin-4-yl)-[4-fluoro-3-(7-morpholin-4-yl-quinazolin-4-yl)phenyl]-methanol], the half-maximal inhibitory concentration (IC50) was 0.003 to 0.007 µM against DNA-PK (enzymatic, 5 μM ATP) and below 0.5 µM in data set [1] (setting [3]). On Kv11.1 (hERG) (setting [7]), the inhibition constant (Ki) lay in the range of 10 to 15 µM.
